Reference: patent US10584350B2, “Structurally modified COI1” (Board of Trustees of Michigan State University, priority 2016, dated 2020)
Entries after “also recorded” stand apart in the source; their conditions may differ.

B1: COI1A384V: modified Arabidopsis thaliana COI1 protein with valine at position 384 (SEQ ID NO:2); also names transgenic plants expressing it (protein, listed as Arabidopsis thaliana)
chain: MEDPDIKRCKLSCVATVDDVIEQVMTYITDPKDRDSASLVCRRWFKIDSETREHVTMALCYTATPDRLSRRFPNLRSLKLKGKPRAAMFNLIPENWGGYVTPWVTEISNNLRQLKSVHFRRMIVSDLDLDRLAKARADDLETLKLDKCSGFTTDGLLSIVTHCRKIKTLLMEESSFSEKDGKWLHELAQHNTSLEVLNFYMTEFAKISPKDLETIARNCRSLVSVKVGDFEILELVGFFKAAANLEEFCGGSLNEDIGMPEKYMNLVFPRKLCRLGLSYMGPNEMPILFPFAAQIRKLDLLYALLETEDHCTLIQKCPNLEVLETRNVIGDRGLEVLAQYCKQLKRLRIERGADEQGMEDEEGLVSQRGLIALAQGCQELEYMVVYVSDITNESLESIGTYLKNLCDFRLVLLDREERITDLPLDNGVRSLLIGCKKLRRFAFYLRQGGLTDLGLSYIGQYSPNVRWMLLGYVGESDEGLMEFSRGCPNLQKLEMRGCCFSERAIAAAVTKLPSLRYLWVQGYRASMTGQDLMQMARPYWNIELIPSRRVPEVNQQGEIREMEHPAHILAYYSLAGQRTDCPTTVRVLKEPI

Legend:
root growth = experiment: Root growth inhibition assays; assay type: in vivo, Arabidopsis; details: for concentrations of comparable potency in inhibiting root growth: COI1A384V plants; for concentrations with equivalent effect on root growth inhibition: wild-type Col-0 plants; for sensitivity of plants to COR vs MeJA: root growth inhibition, 0.2 μM COR vs 10 μM MeJA, in vivo
Method: Col-0, segregating COI1-30, transgenic COI1WT, and COI1A384V seeds were surface-sterilized, cold-stratified, and germinated on half-strength MS agar media containing MeJA, COR, or DMSO at the indicated concentrations. Seedlings were grown under long-day light conditions (16-h light at 100 μE·m^2·s, and 8-h dark) for 10-12 days before scanning images of roots. Root lengths were measured using ImageJ software (see website at rsbweb.nih.gov/ij/).

JAZ9 gene expression = experiment: qPCR of JA-responsive marker gene JAZ9; assay type: in vivo, Arabidopsis; details: 10 μM MeJA or 0.2 μM COR, 3 h; for induction of JAZ9 expression compared with that in COI1-30 plants: COI1A384V L1 line; for JAZ9 gene expression in response to treatment compared with Col-0 or COI1WT plants: COI1A384V lines; for JAZ9 gene expression after application: Col-0 and COI1WT plants
Method: (§1) Col-0 and transgenic seeds were germinated on half-strength MS medium. Five-day-old seedlings were transferred into liquid half-strength MS medium. Segregating coil-30 seeds were germinated on half-strength MS medium with 10 μM MeJA. and MeJA-resistant 5-d-old seedlings were transferred into liquid half-strength MS medium. Next, 10 μM MeJA (Sigma), 0.2 μM COR or 0.1% DMSO were applied to 12-d-old seedlings. Samples were collected after 3 h and total RNA was extracted using Qiagen RNeasy Mini kit (Qiagen). M-MLV Reverse transcriptase (Life Technologies) and SYBR Green master mix (Life Technologies) were used for reverse-transcription and real-time PCR. Primers used were: […]

COI1-JAZ9 interaction [1] = details: Y2H; Thines et al., Melotto et al.; cited from earlier work
COI1-JAZ9 interaction [2] = experiment: Quantitative liquid Y2H assays (Beta-Glo, RLU); assay type: cell-based, Arabidopsis; details: yeast
Method: Yeast EGY48 strain carrying the p8Op:LacZ reporter plasmid was co-transformed with pGilda:COI1 (or COI1 mutants) and pB42AD:JAZ9 (or other JAZs) (Clontech). Colonies were selected on SD minimal plates (BD Biosciences) supplemented with the—uracil (U)/-tryptophan (W)/-histidine (H) amino acid drop out solution (Clontech). Yeast colonies were cultured overnight in liquid SD-UWH medium, harvested, washed twice in sterile water, and the absorbance (OD600) of the cultures was adjusted to 0.2 in liquid SD galactose/raffinose-UWH medium (BD Biosciences).
For liquid Y2H assays, cultures were supplemented with designated concentrations of JA-Ile (10 or 30 μM), COR (1 μM), or DMSO. After 16-h incubation with ligands, the liquid cultures were processed through the Beta-Glo Assay system (Promega) for detecting the β-galactosidase activity. […] Protein expression in yeast was detected using anti-LexA antibody (1:5,000; Upstate Biotechnology) for detection of COI1 expression from pGilda vector and anti-HA (1:5,000; Roche Life Science) antibody for detection of JAZ9 expression in pB42AD vector.

[3] = tested on: COI1WT/A384V-JAZ9 co-receptor; experiment: Coreceptor pull-down assay; assay type: binding, Arabidopsis; details: plant-expressed COI1, E. coli-expressed JAZ9
Method: Pull-down assays were performed with protein extracts from 4-mg pCOI1:COI1WT/A384V-4×c-Myc plants and 25 μg recombinant MBP-JAZ9-8×His. Assays were performed in the presence of JA-Ile or COR at various concentrations and incubated for 30 min at 4° C. in the binding buffer (Katsir et al., Proc Natl Acad Sci USA 105(19):7100-7105 (2008)). Eighty microliters of Ni resin (Invitrogen) were added, followed by an additional 15-min incubation period at 4° C. MBP-JAZ9-8×Hisbound Ni resin was washed three times on microcentrifuge spin columns with 0.25 mL binding buffer at 4° C. MBP-JAZ9-8×His was eluted from the resin with 100 μL of 300 mM imidazole. Proteins bound to MBP-JAZ9-8×His were analyzed by immunoblotting for the presence of COI1WT/A384V-4×c-Myc using anti-cMyc antibody. MBP-JAZ9-8×His recovered by the Ni affinity resin was detected by Coomassie blue staining.

PR1 gene expression = experiment: qPCR of SA-responsive gene PR1; assay type: in vivo, Arabidopsis; details: plants expressing the protein
Method: as §1

SID2 gene expression = experiment: qPCR of SA-responsive gene SID2; assay type: in vivo, Arabidopsis; details: plants expressing the protein
Method: as §1

Pst DC3000 = experiment: Bacterial infection assay, dip-inoculation; assay type: in vivo, Pseudomonas syringae pv tomato; details: 3 days after dip-inoculation
Method: (§2) The Pseudomonas syringae infection assays in Arabidopsis were performed as described by Yao et al. (Methods Mol Biol 1011:63-81 (2013)). In brief, 4- to 5-wk-old (12-h light/12-h dark) Arabidopsis plants were dip-inoculated with bacterial suspension (1×10^8 cfu/mL Pst DC3000 or Psm ES4326 in 0.25 mM MgCl2 solution with 0.025% Silwet-77) or syringe-infiltrated with bacterial suspension (1×10^6 cfu/mL Pst DC3118 or DB29 in 0.25 mM MgCl2 solution). Bacterial growth was determined by serial dilutions of plant extracts 3 or 4 days after inoculation. Homozygous COI1-30 plants were selected by genotyping before bacterial infection.

Spodoptera exigua = experiment: Insect feeding assays; assay type: in vivo; details: for average weight of larvae feeding on COI1-30 plants higher than larvae reared on these plants: S. exigua neonate larvae
Method: Insect bioassays were performed as described by Herde et al. (Methods Mol Biol 1011:51-61 (2013)). Briefly, eggs of Spodoptera exigua were obtained from Benzon Research, and four neonate Spodoptera exigua larvae were transferred to the center of each 6-wk-old Arabidopsis host plant. Plants were grown under 8-hour light (100 μE·m^2·s) and 16-h dark and covered with cup cages. Larval weights were determined after 9-12 days of feeding.

Psm ES4326 = experiment: Bacterial infection assay, dip-inoculation; assay type: in vivo, Pseudomonas syringae pv maculicola; details: 3 days after dip-inoculation
Method: as §2

Row | Molecule | concentrations of comparable potency in inhibiting root growth (root growth) [nM] | concentrations with equivalent effect on root growth inhibition (root growth) [µM] | induction of JAZ9 expression compared with that in COI1-30 plants (JAZ9 gene expression) | JAZ9 gene expression in response to treatment compared with Col-0 or COI1WT plants (JAZ9 gene expression) | JAZ9 gene expression after application (JAZ9 gene expression) | expression of PR1 gene (PR1 gene expression) | expression of SID2 gene (SID2 gene expression) | resistance / susceptibility to Pst DC3000 (bacterial growth and disease symptoms) (Pst DC3000) | average weight of larvae feeding on COI1-30 plants higher than larvae reared on these plants (Spodoptera exigua) | other results
1 | CC/C=C\CC1C(=O)CCC1CC(=O)OC (stereo not drawn) [MeJA, methyl jasmonate] | 100 | 10 | 38 fold | less affected | induced | – | – | – | – | activity in yeast (COI1-JAZ9 interaction [1]): not active
2 | CC[C@H]1C=C(C(=O)N[C@@]2(C(=O)O)C[C@H]2CC)[C@H]2CCC(=O)[C@H]2C1 [COR, coronatine] | 200 | 0.2 | eight-fold | significantly reduced | induced | – | – | – | – | concentrations equivalent in promoting the COI1-JAZ9 interaction (COI1-JAZ9 interaction [2]; JA-Ile is a mixture of active and inactive isomers, COR pure): 0.1 µM; higher concentration required for robust formation of the COI1A384V-JAZ9 co-receptor than for the COI1WT-JAZ9 co-receptor [3]: ~100 fold; less effective in COI A384V than in Col-0 and COI1WT (root growth inhibition) (root growth; 0.2 μM COR): about 100 fold
3 | COI1WT: wild type COI1 (SEQ ID NO:1) expressed in COI1-30-null background; control transgenic lines | – | – | – | – | – | similarly low | similarly low | highly susceptible | six-fold | weight of larvae compared with Col-0 (Spodoptera exigua; 12-day-old larvae, one-way ANOVA with Dunnett test): No significant difference
4 | B1 | – | – | – | – | – | similarly low | similarly low | significantly increased resistance | five-fold | COR-dependent COI1-JAZ9 interaction (COI1-JAZ9 interaction [2]; liquid Y2H, 1 μM COR): greatly reduced; JA-Ile-dependent COI1-JAZ9 interaction (COI1-JAZ9 interaction [2]; liquid Y2H, 10 or 30 μM JA-Ile): less effect; differential effect on JA-Ile-dependent vs COR-dependent COI1-JAZ9 interaction (COI1-JAZ9 interaction [2]; liquid Y2H): preferably affects COR-dependent COI1-JAZ9 interaction; sensitivity of plants to COR vs MeJA (root growth): significantly less sensitive; also recorded: differentially sensitive; sensitivity of plants to COR vs MeJA (root growth; listed as COI A384V): more sensitive; resistance to Psm ES4326 compared with Col-0 or COI1WT plants (Psm ES4326): significantly increased resistance; level of defense against S. exigua (Spodoptera exigua; in vivo): almost wild-type levels
